Assay results: paper PMC13198932, “Pyrazolone-based ERO1 inhibitors in ERO1-driven triple-negative breast cancer and SEPN1-related myopathy: Structure–activity relationship and therapeutic potential” (Pharmacological research, 2025)
Entries after “also recorded” stand apart in the source; their conditions may differ.

How the values were obtained:
[1] = molecular target: T1, Human monoamine oxidase A (Mao-A) (Homo sapiens, UniProt P21397); test: Mao-A activity assay (commercial kit, p-tyramine, H2O2 fluorimetry); assay type: biochemical; conditions: 25 μM, 10 min incubation
T1 construct: purchased Sigma-Aldrich
T1 sequence (P21397 1-527): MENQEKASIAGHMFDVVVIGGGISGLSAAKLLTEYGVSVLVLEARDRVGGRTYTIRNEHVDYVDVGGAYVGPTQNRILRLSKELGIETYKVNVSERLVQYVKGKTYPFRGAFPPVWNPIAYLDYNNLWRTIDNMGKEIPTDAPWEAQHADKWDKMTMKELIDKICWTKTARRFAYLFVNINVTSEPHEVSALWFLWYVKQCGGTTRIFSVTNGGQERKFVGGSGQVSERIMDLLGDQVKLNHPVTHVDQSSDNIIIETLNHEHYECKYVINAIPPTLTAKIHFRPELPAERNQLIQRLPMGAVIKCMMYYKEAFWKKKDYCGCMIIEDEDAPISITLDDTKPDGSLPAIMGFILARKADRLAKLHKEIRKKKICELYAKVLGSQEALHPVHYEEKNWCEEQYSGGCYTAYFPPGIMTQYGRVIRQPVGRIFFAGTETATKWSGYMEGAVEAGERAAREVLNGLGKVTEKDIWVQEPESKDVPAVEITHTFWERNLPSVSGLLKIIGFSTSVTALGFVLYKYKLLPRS
Procedure: Mao-A activity was measured using a commercial assay kit according to the manufacturer’s instructions. Mao-A (0.837 μM) was incubated with vehicle (1 % DMSO), Clorgyline (50 μM), or various concentrations (1, 5, or 25 μM) of EN460, I2, I26, or I29 for 10 min. Mao-A catalyzes the oxidative deamination of p-tyramine, generating H2O2, which was quantified fluorimetrically (λex= 530; λem= 585 nm). Mao-A activity is presented as a percentage of the vehicle control.

[2] = molecular target: T2, ERO1 in MDA-MB-231 breast cancer cells (Homo sapiens, UniProt Q96HE7); test: ERO1 redox state by non-reducing immunoblot in MDA-MB-231 cells; assay type: cell-based
T2 construct: Non-reducing Immunoblot of endogenous ERO1 in lysates of vehicle-treated MDAMB231; endogenous in cells; host or cells: MDA-MB-231
T2 sequence (Q96HE7 24-468): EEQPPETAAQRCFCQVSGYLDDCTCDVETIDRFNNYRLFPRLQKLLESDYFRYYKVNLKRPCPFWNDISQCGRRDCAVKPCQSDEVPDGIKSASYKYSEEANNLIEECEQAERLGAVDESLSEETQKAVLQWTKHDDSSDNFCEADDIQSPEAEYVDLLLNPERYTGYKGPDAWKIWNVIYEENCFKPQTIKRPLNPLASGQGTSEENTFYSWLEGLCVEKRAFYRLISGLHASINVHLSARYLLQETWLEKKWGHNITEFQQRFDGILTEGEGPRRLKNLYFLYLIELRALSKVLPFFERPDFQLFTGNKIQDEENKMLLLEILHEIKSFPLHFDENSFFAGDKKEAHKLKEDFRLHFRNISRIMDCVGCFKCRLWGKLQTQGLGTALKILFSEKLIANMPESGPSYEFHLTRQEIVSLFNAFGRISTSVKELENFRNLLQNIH
Procedure: MDAMB231 and E0771 cells were maintained in Dulbecco’s Modified Eagle’s Medium supplemented with 1 % fetal bovine serum and seeded at 70 % confluency in six-well plates one day prior to the experiment. Cells were treated with DTT (10 mM) and/or ERO1A inhibitors for 1–5 h. At the time of collection, phosphate-buffered saline containing 10 mM NEM was added, and cells were incubated on ice for 10 min in lysis buffer (50 mM Tris-HCl, pH 7.4; 150 mM NaCl; 1 % Triton X-100; 0.1 % SDS; 1 % sodium deoxycholate; protease inhibitors; and 10 mM NEM). Protein concentrations were determined using the BCA assay, and equal amounts of protein were separated by non-reducing SDS-PAGE followed by immunoblotting with a polyclonal antibody against ERO1A [33].

[3] = test system: WT and SEPN1 KD C2C12 cells; test: Super resolution microscopy (SIM) of ER volume and mitochondrial network; assay type: cell-based; conditions: for mitochondrial network (total branch length): SEPN1 KD cells; for ER volume: WT and SEPN1 KD cells
Description: Structured illumination microscopy (SIM) was done on a Nikon SIM system with a 100 × 1.49 objective. Briefly, randomly selected cells were imaged at laser excitation of 405 nm (nuclei), 561 nm (ER), and 640 nm (mitochondria) with a 3D-SIM acquisition protocol. SIM images were quantified with ImageJ. After background normalization, the ER signals was segmentated to calculate the volume of the ER expressed as fraction of the cell. The segmentated mitochondrial signal was followed by the skeletonize function of ImageJ to perform mitochondria network analysis. We then applied the Analyze Skeleton 2D/3D plugin of ImageJ to measure each cell total branch length, expressed as μm.

MDAMB231 cells = test: MTS assay of metabolic activity in MDAMB231 cells; assay type: cell-based, human; conditions: MDAMB231, dose-response, 24 h, 1 % FBS
Procedure: Six thousand cells (MDAMB231 and E0771) per well were seeded in 96-well plates and cultured in medium containing 1 % FBS. Cells were treated with varying concentrations of compounds and, after 24 h, incubated with MTS [3-(4,5-dimethylthiazol-2-yl)-5-(3-carboxymethoxyphenyl)-2-(4 sulfophenyl)2Htetrazolium]and PMS (phenazine methosulfate), following the instructions of the CellTiter 96® Aqueous Non-Radioactive Cell Proliferation Assay (Promega). Measurements were performed using a TECAN Infinite M200 plate reader with […] at 490 nm.

recombinant PDI = recombinant PDI (Homo sapiens, UniProt P07237); test: PDI activity assay (insulin transhydrogenase / insulin turbidity assay); assay type: biochemical; conditions: 25 μM, 15 min incubation
Procedure: PDI activity was assessed using an insulin transhydrogenase assay. Bovine insulin (1 mg/mL) in sodium phosphate buffer, pH 7.0, containing 2 mM EDTA, was incubated with 1.4 μM recombinant PDI in the presence of vehicle (1 % DMSO) or various concentrations of isoquercetin (30 or 60 μM), EN460, I2, I26, or I29 (1, 5, or 25 μM) for 15 min. The turbidimetric assay of insulin disulfide reduction by PDI was initiated by adding 1 mM dithiothreitol, and the reaction was monitored at 650 nm for 80 min. PDI activity is presented as a percentage of the vehicle control.

Chain of recombinant PDI (P07237 18-508, species assumed): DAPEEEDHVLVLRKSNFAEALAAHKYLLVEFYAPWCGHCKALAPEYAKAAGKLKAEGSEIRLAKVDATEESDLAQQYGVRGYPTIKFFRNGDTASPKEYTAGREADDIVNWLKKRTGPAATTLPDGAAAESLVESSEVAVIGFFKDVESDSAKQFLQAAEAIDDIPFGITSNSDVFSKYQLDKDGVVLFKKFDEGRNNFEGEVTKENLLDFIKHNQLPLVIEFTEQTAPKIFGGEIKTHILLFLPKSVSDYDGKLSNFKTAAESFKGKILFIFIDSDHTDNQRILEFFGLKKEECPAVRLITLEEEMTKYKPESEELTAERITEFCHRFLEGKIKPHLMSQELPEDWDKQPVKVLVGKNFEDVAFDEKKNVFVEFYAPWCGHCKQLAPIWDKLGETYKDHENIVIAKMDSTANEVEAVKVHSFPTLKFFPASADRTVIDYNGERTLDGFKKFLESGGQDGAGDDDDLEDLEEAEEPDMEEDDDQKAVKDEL

SMILES | Mao-A activity (percentage of the vehicle control) [1] | ERO1 reduction (redox state) ([2]; MDA-MB-231, 20 μM, Fig. Sup. 2A) | ERO1 reduction ([2]; MDA-MB-231, 20 μM, dose-response 1–20 μM, Fig. 4B) | concentration achieving complete ERO1 reduction ([2]; MDA-MB-231, dose-response 5–20 μM, Fig. Sup. 2B) | mitochondrial network (total branch length) [3] | ER volume [3] | metabolic activity (MTS assay) (MDAMB231 cells) | PDI activity (percentage of the vehicle control) (recombinant PDI) | ERO1 reduction compared with EN460 ([2]; MDAMB231, Fig. 4D)
O=C(O)c1cc(N2N=C(C(F)(F)F)/C(=C\c3ccc(-c4ccccc4)o3)C2=O)ccc1Cl [EN460, reference compound] | inhibited Mao-A activity | efficiently reduced ERO1 | near-complete reduction of ERO1 | 15 µM | selectively improved the mitochondrial network | did not change substantially | significantly reduced metabolic activity | inhibited PDI activity | 
O=C1/C(=C/c2ccc(-c3ccccc3)o2)C(C(F)(F)F)=NN1c1ccccc1F [I29] | inhibited Mao-A activity |  |  |  | selectively improved the mitochondrial network | did not change substantially | significantly reduced metabolic activity; also recorded: higher potency than EN460 | inhibited PDI activity | reduced more efficiently ERO1
